The values that follow come from BindingDB's records for doi:10.1021/jm00007a013 (Chul Research Center, 1995).

This assay is described as follows: In vitro inhibition of DHT (dihydrotestosterone) on proliferation of androgen-sensitive cancer Schionogi (SC-3) cells.
The term IC50 denotes the point on the concentration scale where inhibition reaches its midpoint. Low readings indicate greater potency in that assay, high ones weaker potency in that assay. In turn, `CCN(CC)C(=O)[C@H]1CCC2C3CC[C@H]4N(C)C(=O)CC[C@]4(C)C3CC[C@@]21C` (stereo partly drawn) [(4aR,6aS,7S,11aR)-1,4a,6a-Trimethyl-2-oxo-hexadecahydro-indeno[5,4-f]quinoline-7-carboxylic acid diethylamide] registered an IC50 of 463 nM.

For `CCC(CC)N(C=O)[C@H]1CCC2C3CC[C@H]4N(C)C(=O)CC[C@]4(C)C3CC[C@@]21C` (stereo partly drawn) [N-(1-Ethyl-propyl)-N-((4aR,6aS,7S,11aR)-1,4a,6a-trimethyl-2-oxo-hexadecahydro-indeno[5,4-f]quinolin-7-yl)-formamide], it took 90 nM to reach half-maximal inhibition (IC50).

`CN1C(=O)CC[C@]2(C)C3CC[C@@]4(C)C(CC[C@@H]4N(C=O)CCC(C)(C)C)C3CC[C@@H]12` (stereo partly drawn) [N-(3,3-Dimethyl-butyl)-N-((4aR,6aS,7S,11aR)-1,4a,6a-trimethyl-2-oxo-hexadecahydro-indeno[5,4-f]quinolin-7-yl)-formamide] yielded an IC50 of 171 nM.

On to `CC(C)CCN(C=O)[C@H]1CCC2C3CC[C@H]4N(C)C(=O)CC[C@]4(C)C3CC[C@@]21C` (stereo partly drawn) [N-(3-Methyl-butyl)-N-((4aR,6aS,7S,11aR)-1,4a,6a-trimethyl-2-oxo-hexadecahydro-indeno[5,4-f]quinolin-7-yl)-formamide], for which the IC50 was 46 nM.

On to `CCCCN(C=O)[C@H]1CCC2C3CC[C@H]4N(C)C(=O)CC[C@]4(C)C3CC[C@@]21C` (stereo partly drawn) [N-Butyl-N-((4aR,6aS,7S,11aR)-1,4a,6a-trimethyl-2-oxo-hexadecahydro-indeno[5,4-f]quinolin-7-yl)-formamide], for which the 50% inhibitory concentration (IC50) came to 166 nM.

Compound `CCCCCCCN(C=O)[C@H]1CCC2C3CC[C@H]4N(C)C(=O)CC[C@]4(C)C3CC[C@@]21C` (stereo partly drawn) [N-Heptyl-N-((4aR,6aS,7S,11aR)-1,4a,6a-trimethyl-2-oxo-hexadecahydro-indeno[5,4-f]quinolin-7-yl)-formamide] registered an IC50 of 58 nM.

Regarding `CCCCCCN(C=O)[C@H]1CCC2C3CC[C@H]4N(C)C(=O)CC[C@]4(C)C3CC[C@@]21C` (stereo partly drawn) [N-Hexyl-N-((4aR,6aS,7S,11aR)-1,4a,6a-trimethyl-2-oxo-hexadecahydro-indeno[5,4-f]quinolin-7-yl)-formamide], the midpoint of inhibition, the IC50, lay at 89 nM.

For the compound `CC(C)CN(C=O)[C@H]1CCC2C3CC[C@H]4N(C)C(=O)CC[C@]4(C)C3CC[C@@]21C` (stereo partly drawn) [N-Isobutyl-N-((4aR,6aS,7S,11aR)-1,4a,6a-trimethyl-2-oxo-hexadecahydro-indeno[5,4-f]quinolin-7-yl)-formamide], the IC50 was found to be 994 nM.

For `CC(C)N(C=O)[C@H]1CCC2C3CC[C@H]4N(C)C(=O)CC[C@]4(C)C3CC[C@@]21C` (stereo partly drawn) [N-Isopropyl-N-((4aR,6aS,7S,11aR)-1,4a,6a-trimethyl-2-oxo-hexadecahydro-indeno[5,4-f]quinolin-7-yl)-formamide], the IC50 was 162 nM.

In turn, `CN(C=O)[C@H]1CCC2C3CC[C@H]4N(C)C(=O)CC[C@]4(C)C3CC[C@@]21C` (stereo partly drawn) [N-Methyl-N-((4aR,6aS,7S,11aR)-1,4a,6a-trimethyl-2-oxo-hexadecahydro-indeno[5,4-f]quinolin-7-yl)-formamide] showed an IC50 of 1480 nM.

Consider `CCCCCCCCN(C=O)[C@H]1CCC2C3CC[C@H]4N(C)C(=O)CC[C@]4(C)C3CC[C@@]21C` (stereo partly drawn) [N-Octyl-N-((4aR,6aS,7S,11aR)-1,4a,6a-trimethyl-2-oxo-hexadecahydro-indeno[5,4-f]quinolin-7-yl)-formamide], for which the IC50 worked out at 50 nM.

With `CCCCCN(C=O)[C@H]1CCC2C3CC[C@H]4N(C)C(=O)CC[C@]4(C)C3CC[C@@]21C` (stereo partly drawn) [N-Pentyl-N-((4aR,6aS,7S,11aR)-1,4a,6a-trimethyl-2-oxo-hexadecahydro-indeno[5,4-f]quinolin-7-yl)-formamide], half-maximal inhibition (IC50) required 96 nM.

For `CCCN(C=O)[C@H]1CCC2C3CC[C@H]4N(C)C(=O)CC[C@]4(C)C3CC[C@@]21C` (stereo partly drawn) [N-Propyl-N-((4aR,6aS,7S,11aR)-1,4a,6a-trimethyl-2-oxo-hexadecahydro-indeno[5,4-f]quinolin-7-yl)-formamide], the concentration for half-maximal inhibition (IC50) is 989 nM.
